Publication PMC6196238, “Novobiocin, a Newly Found TRPV1 Inhibitor, Attenuates the Expression of TRPV1 in Rat Intestine and Intestinal Epithelial Cell Line IEC-6” (Frontiers in Pharmacology, 2018)
Values belong to the compound of their own block, whether it stands above or below them.

Experiments:
IEC-6/TRPV1- cells [1] = assay: LDH release assay (cell membrane integrity)
Protocol: (§4) The transfected cells were plated in 12-well plates. […] The cells were centrifuged at 1000 g for 5 min. Next, 50 μL of supernatants were aspirated and the rest of supernatants were discarded. The cells were washed twice with deionized water and then lysed by ultrasonic wave cracker. And then cell lysate and supernatants were analyzed by using LDH Release Assay Kit, according to the manufacturer’s instructions.

in vivo = conditions: SD, rat, po, 10 mg
Protocol: Blood samples were collected into heparinized tubes before and at 30, 60, 120, 180, 210, 240, 270, 330, 390, and 720 min after administration. Blood samples were immediately centrifuged at 4000 g (4°C) for 10 min to obtain plasma. The plasma samples were stored at -80°C until LC-MS/MS analysis.
The plasma samples and protein sample with 100 μL were extracted with 400 μL of methanol involving IS (verapamil 50 ng⋅mL^-1) by vortex-mix for 1 min, ultrasonic extraction for 1 h, and then centrifugation for 30 min at 15000 g. The supernatant was transferred into a borosilicate glass and 2 μL was subjected to LC-MS/MS analysis.
The LC-MS/MS system consisted of Agilent 6460 Triple Quadrupole LC/MS systems via an ESI interface. The samples were separated on an Agilent ZORBAX SB-C18 column (3.5 μm, 2.1 mm × 150 mm) and the column temperature was maintained at 30°C. The mobile phase consisted of acetonitrile and water contains 0.1% formic acid (70:30, v/v). The flow rate was 0.2 mL⋅min^-1. The ion source was an electrospray ionization interface in the positive mode. […] Other parameters were as follows: spray voltage, 4.0 kV; capillary temperature, 350°C; gas flow, 10 L⋅min^-1.

IEC-6/TRPV1- cells [2] = assay: MTT cell viability assay
Protocol: (§1) The rat intestinal epithelial cell line IEC-6, purchased from Kunming Institute of Zoology. CAS, was cultured in Dulbecco’s Modified Eagle’s Medium (DMEM) (Gibco, Grand Island, NY, United States) supplemented with 10% fetal bovine serum (FBS; Gibco) at 37°C in a humidified atmosphere of 5% CO2.
(§2) The plasmid pENTER containing the TRPV1 coding sequence NM_080704 was used as template in a PCR with the following primers: 5′-[…]-3′ (forward) and 5′-[…] (reverse). And synthetic small interfering RNA (siRNA) specific for rat TRPV1 (TRPV1-siRNA) was purchased from Vigene Bioscience (Rockville, MD, United States) with the following sequences: 5′-[…]-3′ (forward) and 5′-[…]-3′ (reverse) for TRPV1-siRNA. The transfecting process was conducted by using the lipofectamin® 3000 transfection reagent (Invitrogen^TM, Carlsbad, CA, United States), according to the manufacturer’s protocol.
(§3) The transfected cells were plated in 96-well plates. […] Optical density at 490 nm was used to evaluate cell viability in 96-well plates.

IEC-6/TRPV1+ cells [3] = assay: MTT cell viability assay; conditions: for Cell Survival: IEC-6/TRPV1+
Protocol: as §1, §2, §3

IEC-6/TRPV1+ cells [4] = assay: LDH release assay (cell membrane integrity); conditions: for LDH release: IEC-6/TRPV1+; for LDH release compared with the control: NOVO 2.5, 5, 10 μM, CAP 25 μM, RR 10 μM, SB-705498 0.1 μM, 12 and 24 h
Protocol: as §4

IEC-6/TRPV1- cells [5] = assay: CAP accumulation assay; type: cell-based, rat; conditions: 2.5-10 μM NOVO, 10 μM RR, 0.1 μM SB-705498, Figure 3D
Protocol: The transfected cells were grown to 80% confluence in 12-well plates. The experiment was divided into three parts: […] SB-705498, RR or NOVO was then added to the medium for another 15, 30, and 60 min. […] After incubation, the medium was removed, and cell layers were washed three times with ice-cold PBS and then extracted with Membrane Protein Extraction Kit (Thermo Fisher Scientific Inc, Rockford, IL, United States), according to the manufacturer’s protocol. The cytosolic protein extracts were stored at -80°C until LC-MS/MS analysis. The plasma samples and protein sample with 100 μL were extracted with 400 μL of methanol involving IS (verapamil 50 ng⋅mL^-1) by vortex-mix for 1 min, ultrasonic extraction for 1 h, and then centrifugation for 30 min at 15000 g. The supernatant was transferred into a borosilicate glass and 2 μL was subjected to LC-MS/MS analysis. The LC-MS/MS system consisted of Agilent 6460 Triple Quadrupole LC/MS systems via an ESI interface. The samples were separated on an Agilent ZORBAX SB-C18 column (3.5 μm, 2.1 mm × 150 mm) and the column temperature was maintained at 30°C. The mobile phase consisted of acetonitrile and water contains 0.1% formic acid (70:30, v/v). The flow rate was 0.2 mL⋅min^-1. The ion source was an electrospray ionization interface in the positive mode. […] Other parameters were as follows: spray voltage, 4.0 kV; capillary temperature, 350°C; gas flow, 10 L⋅min^-1.

[6] = tested on: rat intestine (jejunum, ileum, colon); assay: Ussing chamber intestinal permeability of CAP; type: in vitro ADME; conditions: CAP + 10 μM inhibitor; for fold-inhibition factor of CAP Papp: vs CAP only
Protocol: NOVO was also prepared in HEPES buffer to yield final concentration at 5, 10, 25, 50, 100, and 200 μM. […] Different portions of the rat intestine were excised and flushed with HEPES buffer, including jejunum (after the first 5 cm of the top of small intestine), ileum (the distal part of small intestine) and colon (proximal to cecal-colonic junction), and incubated in the ice-cold HEPES buffer. Next, 3–4 cm of the intestine was clipped, and the serosa was removed rapidly on an ice-cold glass. The intestinal segments were fixed in the Ussing chamber. Finally, 7 mL of HEPES buffer was added to the receiving side while an equal volume of drug solution to the dosing side. […] All the samples were kept at -20°C till HPLC analysis.
In brief, samples were injected into a C18 column (3.5 μm, 2.1 mm × 100 mm). An aliquot of 20 μL of sample solutions were injected.

[7] = tested on: rat intestine (jejunum, ileum, colon); assay: Ussing chamber intestinal permeability of NOVO; type: in vitro ADME; conditions: NOVO in combination with 10 μM RR; Figure 1
Protocol: The intestinal permeability of CAP in vitro was performed using Ussing chamber. […] NOVO was also prepared in HEPES buffer to yield final concentration at 5, 10, 25, 50, 100, and 200 μM. Animal intestinal segments for the permeability study were prepared in accordance with the experimental method as described previously ([Yodoya et al., 1994]; [Wallon et al., 2005]; [Duan et al., 2013]). Briefly, male SD rats, weighting 240–260 g, were fasted for 18 h before each experiment and anesthetized by injecting 10 % chloral hydrate anesthesia (i.p.). Different portions of the rat intestine were excised and flushed with HEPES buffer, including jejunum (after the first 5 cm of the top of small intestine), ileum (the distal part of small intestine) and colon (proximal to cecal-colonic junction), and incubated in the ice-cold HEPES buffer. Next, 3–4 cm of the intestine was clipped, and the serosa was removed rapidly on an ice-cold glass. The intestinal segments were fixed in the Ussing chamber. Finally, 7 mL of HEPES buffer was added to the receiving side while an equal volume of drug solution to the dosing side. All the chambers were maintained at 37°C by using a warm water-circulating pump and a mixture of 95% O2 and 5% CO2 aerated to ensure the activity of the membrane. […]

SMILES: COc1cc(CNC(=O)CCCC/C=C/C(C)C)ccc1O [CAP, capsaicin]
LDH release (IEC-6/TRPV1- cells [1]; 25 μM, 12 h): 0.680 ± 0.205 gprot⋅mL ^-1 | LDH release (IEC-6/TRPV1- cells [1]; 25 μM, 24 h): 0.462 ± 0.101 gprot⋅mL ^-1 | AUC(0-t) (in vivo): 230 ng·h/mL | Cmax (in vivo): 52.2 ± 8.92 ng/mL | Tmax (in vivo; Tmax of CAP): 3.9 h | Tmax (in vivo; peak time (Tmax) of CAP): ~4 h | Cell Survival (IEC-6/TRPV1- cells [2]; 12.5 μM, incubation 12 h): 0.969 ± 0.310 | Cell Survival (IEC-6/TRPV1- cells [2]; 12.5 μM, incubation 24 h): 0.934 ± 0.111 | Cell Survival (IEC-6/TRPV1- cells [2]; 25 μM, incubation 12 h): 0.851 ± 0.216 | Cell Survival (IEC-6/TRPV1- cells [2]; 25 μM, incubation 24 h): 0.878 ± 0.096 | Cell Survival (IEC-6/TRPV1- cells [2]; 50 μM, incubation 12 h): 0.792 ± 0.316 | Cell Survival (IEC-6/TRPV1- cells [2]; 50 μM, incubation 24 h): 0.801 ± 0.171 | Cell Survival (IEC-6/TRPV1+ cells [3]; 12.5 μM, incubation 12 h): 1.029 ± 0.180 | Cell Survival (IEC-6/TRPV1+ cells [3]; 12.5 μM, incubation 24 h): 0.916 ± 0.163 | Cell Survival (IEC-6/TRPV1+ cells [3]; 25 μM, incubation 12 h): 0.896 ± 0.199 | Cell Survival (IEC-6/TRPV1+ cells [3]; 25 μM, incubation 24 h): 0.822 ± 0.102 | Cell Survival (IEC-6/TRPV1+ cells [3]; 50 μM, incubation 12 h): 0.820 ± 0.201 | Cell Survival (IEC-6/TRPV1+ cells [3]; 50 μM, incubation 24 h): 0.739 ± 0.012 | concentration up to which more than 80% of the cells were viable (IEC-6/TRPV1+ cells [3]; both IEC-6/TRPV1+ and IEC-6/TRPV1-, incubated 24 h): 25 µM | LDH release (IEC-6/TRPV1+ cells [4]; 25 μM, 12 h): 0.380 ± 0.165 gprot⋅mL ^-1 | LDH release (IEC-6/TRPV1+ cells [4]; 25 μM, 24 h): 0.311 ± 0.051 gprot⋅mL ^-1 | LDH release compared with the control (IEC-6/TRPV1+ cells [4]): not any significant difference

LDH release (IEC-6/TRPV1- cells [1]; 10 μM, 12 h): 0.552 ± 0.039 gprot⋅mL ^-1 | LDH release (IEC-6/TRPV1- cells [1]; 10 μM, 24 h): 0.501 ± 0.094 gprot⋅mL ^-1 | Papp of CAP ([6]; colon): 12.18 ± 2.90 ×10^-6, cm⋅s^-1 | fold-inhibition factor of CAP Papp ([6]; colon): 1.64 fold | Papp of CAP ([6]; ileum): 5.06 ± 0.57 ×10^-6, cm⋅s^-1 | fold-inhibition factor of CAP Papp ([6]; ileum): 1.46 fold | Papp of CAP ([6]; jejunum): 2.54 ± 0.40 ×10^-6, cm⋅s^-1 | fold-inhibition factor of CAP Papp ([6]; jejunum): 1.23 fold | LDH release (IEC-6/TRPV1+ cells [4]; 10 μM, 12 h): 0.406 ± 0.056 gprot⋅mL ^-1 | LDH release (IEC-6/TRPV1+ cells [4]; 10 μM, 24 h): 0.301 ± 0.061 gprot⋅mL ^-1 | LDH release compared with the control (IEC-6/TRPV1+ cells [4]): not any significant difference | effect on permeability of NOVO across intestinal segments [7]: no change
SMILES: N.N.N.N.N.N.N.N.N.N.N.N.N.N.[Cl-].[Cl-].[Cl-].[Cl-].[Cl-].[Cl-].[O-2].[O-2].[Ru+3].[Ru+3].[Ru+4] [RR, ruthenium red]
accumulation of CAP, co-incubation (IEC-6/TRPV1- cells [5]): did not change
